Data on 21 molecules can be found in PubChem BioAssay AID504344 (Broad Institute, 2011).

SMILES strings stand for the structures. Activity calls are given as the source filed them.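 The calls were made as follows: active = fitted curve reaches 10% of the positive control caspase activation at or below the top valid tested dose; inactive = signal shifts the opposite way, plus the rest.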 Where only a bound is given, the exact number is not on record here.

Tested on in one test: not listed separately
In words: caspase activation in Bax/Bak-null MEFs, dose response, counter-screen for Bcl2-A1 inhibitor project, cell-based, mouse embryonic fibroblasts, dry powder, set 2 (AID 504344). Particulars: Bax/Bak-/- MEF caspase activation, CaspaseGlo luminescence, 3 h; at 35 µM (top of the series). (In general: A counterscreen serves to expose hits that act by an unwanted route or on another target.)
Regarding `Cn1c(=O)c([N+](=O)[O-])c(Cl)c2ccccc21`, the caspase activation is 0.515% (inactive).

For the molecule `O=c1oc2ccccc2c(Sc2ccccc2)c1[N+](=O)[O-]`, the caspase activation was -0.438% (inactive).

As for `Cn1c(=O)c([N+](=O)[O-])c(Nc2ccc(Cl)cc2)c2ccccc21`, the caspase activation was 0.654% (inactive).

As to `Cn1c(=O)c([N+](=O)[O-])c(Oc2ccccc2)c2ccccc21`, the caspase activation is 0.272% (inactive).

In the case of `O=C(Oc1cccc(/C=N/Nc2nc(Nc3ccccc3)nc(N3CCOCC3)n2)c1)c1ccco1`, the caspase activation was 0.026% (inactive).

As to `O=c1oc2ccccc2c(Nc2cc(Cl)cc(Cl)c2)c1[N+](=O)[O-]`, the caspase activation is -0.079% (inactive).

Consider `O=c1oc2ccccc2c(N2CCCCC2)c1[N+](=O)[O-]`, for which the caspase activation was -0.245% (inactive).

In the case of `Cn1c(=O)c([N+](=O)[O-])c(-n2cnc3ccccc32)c2ccccc21`, the caspase activation is 0.662% (inactive).

Take `O=[N+]([O-])c1cnc2ccccc2c1Sc1ccccc1`: the caspase activation was 2.51% (inactive).

Regarding `CN1C(=O)C(C)(C)N(Cc2ccccc2)c2ccccc21`, the caspase activation was -0.187% (inactive).

Take `Cc1ccc(Sc2c([N+](=O)[O-])c(=O)n(C)c3ccccc23)cc1`: the caspase activation was 1.18% (inactive).

Take `C/C1=C/C(=O)O[C@@H]2C[C@@H](CC[C@H](C)/C=C\CC1)O[C@@](O)(C1CSC(=O)N1)C2` (stereo partly specified): the caspase activation is 0.173% (inactive).

Turning to `Cc1ccc(Sc2cc(=O)n(C)c3ccccc23)cc1`, the caspase activation is -0.817% (inactive).

As to `CCOC(=O)N1CCN(c2c([N+](=O)[O-])c(=O)n(C)c3ccccc23)CC1`, the caspase activation was -0.062% (inactive).

As for `Cc1ccc(Nc2c([N+](=O)[O-])c(=O)n(C)c3ccccc23)cc1`, the caspase activation was 0.3% (inactive).

Regarding `CCSc1c([N+](=O)[O-])c(=O)oc2ccccc12`, the caspase activation is 0.365% (inactive).

For the molecule `O=c1oc2ccccc2c(Cl)c1[N+](=O)[O-]`, the caspase activation was -0.981% (inactive).

For `Cc1ccc(Nc2c([N+](=O)[O-])c(=O)oc3ccccc23)cc1`, the caspase activation was -0.021% (inactive).

Take `CCOCCCNc1c([N+](=O)[O-])c(=O)n(C)c2ccccc12`: the caspase activation was 0.166% (inactive).

As for `Cc1ccc(Sc2c([N+](=O)[O-])cnc3ccccc23)cc1`, the caspase activation is 3.45% (inactive).

The next test deals with Bax/Bak-/- MEF caspase activation, CaspaseGlo luminescence, 3 h. The description is as above.
Settings: not given
Turning to `Cc1ccc(Sc2c([N+](=O)[O-])c(=O)oc3ccccc23)cc1`, the AC10 is > 35 µM (inactive).
